System: rice
Assay: Low temperature assay on rice seedlings
Format: in vivo
Procedure, shortened: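 Nine-day-old etiolated rice seedlings (grown on water at 30 °C±2 °C, dark) immersed in brassinolide analogues at 1–0.0001 mg/L or pure water, held at 1–5 °C for 24 hr. Plant height, leaf area, root weight read at 3, 6, 9, 12 days; leaf and tiller number at 12 days.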

## CC(C)C[C@@H](O)[C@H](O)[C@@H](C)[C@H]1CCC2C3CC(=O)C4C[C@H](O)[C@H](O)C[C@]4(C)C3CC[C@@]21C (some centres unmarked) [BR5]
0.01 mg/l, 3 °C, 9 days
  Height: 7.5 cm
  Weight of root: 2.7 g
0.01 mg/l, 3 °C, 12 days
  Area of leaf: 13.2 cm^2
  Height: 7.9 cm
  Number of leaf: 3
  Number of tiller: 2
  Weight of root: 2.9 g
0.01 mg/l, 4 °C, 3 days
  Area of leaf: 10.8 cm^2
  Height: 7.1 cm
  Weight of root: 2.5 g
0.01 mg/l, 4 °C, 6 days
  Area of leaf: 12.4 cm^2
  Height: 7.5 cm
  Weight of root: 2.6 g
0.01 mg/l, 4 °C, 9 days
  Area of leaf: 13.1 cm^2
  Height: 7.6 cm
  Weight of root: 2.9 g
0.01 mg/l, 4 °C, 12 days
  Area of leaf: 13.5 cm^2
  Height: 7.8 cm
  Number of leaf: 3
  Number of tiller: 2
  Weight of root: 3.0 g
0.01 mg/l, 5 °C, 3 days
  Area of leaf: 10.3 cm^2
  Height: 7.4 cm
  Weight of root: 2.8 g
0.01 mg/l, 5 °C, 6 days
  Area of leaf: 13.1 cm^2
  Height: 7.4 cm
  Weight of root: 3.0 g
0.01 mg/l, 5 °C, 9 days
  Area of leaf: 16.4 cm^2
  Height: 8 cm
  Weight of root: 3.4 g
0.01 mg/l, 5 °C, 12 days
  Area of leaf: 17 cm^2
  Height: 8.2 cm
  Number of leaf: 4
  Number of tiller: 3
  Weight of root: 3.6 g
0.1 mg/l, 1 °C, 3 days
  Area of leaf: 10.1 cm^2
  Height: 7.0 cm
  Weight of root: 2.8 g
0.1 mg/l, 1 °C, 6 days
  Area of leaf: 11 cm^2
  Height: 7.2 cm
  Weight of root: 3.0 g
0.1 mg/l, 1 °C, 9 days
  Area of leaf: 12 cm^2
  Height: 7.2 cm
  Weight of root: 3.4 g
0.1 mg/l, 1 °C, 12 days
  Area of leaf: 13.4 cm^2
  Height: 7.4 cm
  Number of leaf: 3
  Number of tiller: 3
  Weight of root: 3.4 g
0.1 mg/l, 2 °C, 3 days
  Area of leaf: 10.4 cm^2
  Height: 7.1 cm
  Weight of root: 2.8 g
0.1 mg/l, 2 °C, 6 days
  Area of leaf: 11.2 cm^2
  Height: 7.3 cm
  Weight of root: 3.0 g
0.1 mg/l, 2 °C, 9 days
  Area of leaf: 12.4 cm^2
  Height: 7.3 cm
  Weight of root: 3.1 g
0.1 mg/l, 2 °C, 12 days
  Area of leaf: 13.6 cm^2
  Height: 7.4 cm
  Number of leaf: 3
  Number of tiller: 3
  Weight of root: 3.2 g
0.1 mg/l, 3 °C, 3 days
  Area of leaf: 10.5 cm^2
  Height: 7.4 cm
  Weight of root: 2.5 g
0.1 mg/l, 3 °C, 6 days
  Area of leaf: 12 cm^2
  Height: 7.4 cm
  Weight of root: 2.7 g
0.1 mg/l, 3 °C, 9 days
  Area of leaf: 12.6 cm^2
  Height: 7.9 cm
  Weight of root: 2.7 g
0.1 mg/l, 3 °C, 12 days
  Area of leaf: 13.4 cm^2
  Height: 7.9 cm
  Number of leaf: 3
  Number of tiller: 2
  Weight of root: 2.9 g
0.1 mg/l, 4 °C, 3 days
  Area of leaf: 10.8 cm^2
  Height: 7.5 cm
  Weight of root: 2.5 g
0.1 mg/l, 4 °C, 6 days
  Area of leaf: 12.1 cm^2
  Height: 7.5 cm
  Weight of root: 2.7 g
0.1 mg/l, 4 °C, 9 days
  Area of leaf: 13.2 cm^2
  Height: 8 cm
  Weight of root: 2.9 g
0.1 mg/l, 4 °C, 12 days
  Area of leaf: 13.8 cm^2
  Height: 8 cm
  Number of leaf: 3
  Number of tiller: 2
  Weight of root: 3 g
0.1 mg/l, 5 °C, 3 days
  Area of leaf: 11 cm^2
  Height: 7.5 cm
  Weight of root: 2.9 g
0.1 mg/l, 5 °C, 6 days
  Area of leaf: 12.9 cm^2
  Height: 7.6 cm
  Weight of root: 3.2 g
0.1 mg/l, 5 °C, 9 days
  Area of leaf: 16.8 cm^2
  Height: 8 cm
  Weight of root: 3.5 g
0.1 mg/l, 5 °C, 12 days
  Area of leaf: 19 cm^2
  Height: 8.3 cm
  Number of leaf: 3
  Number of tiller: 2
  Weight of root: 4.1 g
1 mg/l, 1 °C, 3 days
  Area of leaf: 10 cm^2
  Height: 7.0 cm
  Weight of root: 2.6 g
1 mg/l, 1 °C, 6 days
  Area of leaf: 11.2 cm^2
  Height: 7.3 cm
  Weight of root: 3.1 g
1 mg/l, 1 °C, 9 days
  Area of leaf: 12.4 cm^2
  Height: 7.3 cm
  Weight of root: 3.1 g
1 mg/l, 1 °C, 12 days
  Area of leaf: 13 cm^2
  Height: 7.9 cm
  Number of leaf: 3
  Number of tiller: 3
  Weight of root: 3.7 g
1 mg/l, 2 °C, 3 days
  Area of leaf: 10.2 cm^2
  Height: 7.1 cm
  Weight of root: 2.6 g
1 mg/l, 2 °C, 6 days
  Area of leaf: 11.7 cm^2
  Height: 7.2 cm
  Weight of root: 3.0 g
1 mg/l, 2 °C, 9 days
  Area of leaf: 12.6 cm^2
  Height: 7.2 cm
  Weight of root: 3.2 g
1 mg/l, 2 °C, 12 days
  Area of leaf: 12.8 cm^2
  Height: 7.8 cm
  Number of leaf: 3
  Number of tiller: 3
  Weight of root: 3.7 g
1 mg/l, 3 °C, 3 days
  Area of leaf: 10.4 cm^2
  Height: 7.2 cm
  Weight of root: 2.5 g
1 mg/l, 3 °C, 6 days
  Area of leaf: 12 cm^2
  Height: 7.5 cm
  Weight of root: 2.6 g
1 mg/l, 3 °C, 9 days
  Area of leaf: 12.1 cm^2
  Height: 7.6 cm
  Weight of root: 2.8 g
1 mg/l, 3 °C, 12 days
  Area of leaf: 13 cm^2
  Height: 8.1 cm
  Number of leaf: 3
  Number of tiller: 2
  Weight of root: 2.9 g
1 mg/l, 4 °C, 3 days
  Area of leaf: 10.9 cm^2
  Height: 7.2 cm
  Weight of root: 2.5 g
1 mg/l, 4 °C, 6 days
  Area of leaf: 12.6 cm^2
  Height: 7.5 cm
  Weight of root: 2.7 g
1 mg/l, 4 °C, 9 days
  Area of leaf: 13.2 cm^2
  Height: 7.8 cm
  Weight of root: 3.1 g
1 mg/l, 4 °C, 12 days
  Area of leaf: 13.4 cm^2
  Height: 8.2 cm
  Number of leaf: 3
  Number of tiller: 2
  Weight of root: 3.2 g
1 mg/l, 5 °C, 3 days
  Area of leaf: 11.1 cm^2
  Height: 7.3 cm
  Weight of root: 2.9 g
1 mg/l, 5 °C, 6 days
  Area of leaf: 13.1 cm^2
  Height: 7.7 cm
  Weight of root: 3.5 g
1 mg/l, 5 °C, 9 days
  Area of leaf: 18 cm^2
  Height: 8 cm
  Weight of root: 3.6 g
1 mg/l, 5 °C, 12 days
  Area of leaf: 20 cm^2
  Height: 8.4 cm
  Number of leaf: 3
  Number of tiller: 2
  Weight of root: 4.5 g
In vivo
  Effects on resistance to low temperature compared among analogues: more than those of BR2, BR3 and BR4

— US9326506B2, “Preparation method, agricultural composition and applications of natural brassinolide analogs” (CHENGDU NEWSUN CROPSCIENCE CO., LTD, priority 2012, dated 2016)
